Results: US20020177621A1, “Antifungal fragrance composition” (priority 2000, published 2002)
Several values for one entry are separate records, joined by “and”; a condition that tells them apart may be missing. Equal values may be shown once. Entries after “also recorded” stand apart in the source; their conditions may differ.

What was measured:
Assay type in all cases: cell-based
[1] = test system: Aspergillus niger IFO 9455 (An-1); experiment: Fragrant vapor antifungal activity (impregnated paper disc on cover of inverted agar plate); details: 72 hours at 27° C.; for IZ: Diameter of growth inhibition zone: 20 μl fragrance (or 40 μl of 50% ethanol solution) on disc, >85 = growth inhibited over entire plate; for Growth: Growth status outside the inhibition zone / SI: Diameter of spore formation inhibition zone: 20 μl fragrance on disc; for Growth: Growth status outside the inhibition zone: compared with control
Procedure: (§1) Physiological saline containing 0.05% Tween-80 was added to a slant on which the test organism grew well, and a spore suspension was produced at 1×10^6 CFU (Colony Forming Units)/ml in accordance with ordinary methods. Potato dextrose agar (PDA: Nissui Pharmaceutical) was used for the medium. To begin with, 10 ml of sterile PDA was pipetted into a Petri dish and after it solidified, another 6 ml of PDA containing 1% of the above described spore suspension was overlaid and solidified to prepare the test agar plate. For the fragrance sample, if the sample is in the form of liquid at ordinary temperatures, 20 μl of liquid was directly impregnated into a paper disc (Advantech, diameter: 8 mm, thick material), while a 50% by weight ethanol solution was prepared for crystals or powder, and 40 μl of that solution was then impregnated into the paper disc.
(§2) The test agar plate was placed inversely, and the paper disc impregnated with the fragrance sample was placed in the center of the cover of the agar plate, followed by incubating for 72 hours at 27° C. Evaluation was made based on the diameter (mm) of the mold growth inhibition zone. When mold growth was inhibited over the entire surface of the agar plate, the diameter of the growth inhibition zone was reported as >85 mm. At locations where mold grew outside the inhibition zone, the diameter of the spore formation inhibition zone and the degree of growth were recorded by comparing with a control. The molds used in the test are shown in Table 1, wherein these molds consist of mold species that are isolated at high frequencies from rooms and bath rooms.
(§3) The amount of blended fragrance added to the paper discs was 20 μl each, and only the diameter of the inhibition zone (mm) is indicated for the results.

[2] = test system: Aureobasidium pullulans IFO 6353 (Ap-1); experiment: as above; details: 72 hours at 27° C.; for IZ: Diameter of growth inhibition zone: 20 μl fragrance (or 40 μl of 50% ethanol solution) on disc, >85 = growth inhibited over entire plate; for Growth: Growth status outside the inhibition zone / SI: Diameter of spore formation inhibition zone: 20 μl fragrance on disc; for Growth: Growth status outside the inhibition zone: compared with control
Procedure: as §1, §2, §3

[3] = test system: Cladosporium cladosporioides IFO 6348 (Cc-1); experiment: as above; details: 72 hours at 27° C.; for IZ: Diameter of growth inhibition zone: 20 μl fragrance (or 40 μl of 50% ethanol solution) on disc, >85 = growth inhibited over entire plate; for Growth: Growth status outside the inhibition zone: compared with control
Procedure: as §1, §2, §3

An-1 (Aspergillus niger) = experiment: Confirmation of synergistic action of two fragrances (vapor, paper disc); details: for Synergistic effect: second fragrance that shows synergistic action with the fragrance component: combined IZ 20 mm or more larger than sum of single IZ; for IZ (diameter of growth inhibition zone) / Growth (growth status outside the inhibition zone) / SI (diameter of spore formation inhibition zone): 72 hours at 27° C.; for IZ (diameter of growth inhibition zone): sample amount on disc: citral 2 μl, benzaldehyde 10 μl, dimethyl tetrahydrobenzaldehyde 20 μl, geraniol 10 μl, octyl aldehyde 20 μl, 9-decen-1-ol 0.5 μl, trans-2-undecenal 3 μl, phenylacetaldehyde 5 μl, A + B = both amounts on one disc; for Growth (growth status outside the inhibition zone): sample amounts as in Table 3 (citral 2 μl, benzaldehyde 10 μl, dimethyl tetrahydrobenzaldehyde 20 μl, geraniol 10 μl, octyl aldehyde 20 μl, 9-decen-1-ol 0.5 μl, trans-2-undecenal 3 μl, phenylacetaldehyde 5 μl; A + B = both); for SI (diameter of spore formation inhibition zone): sample amounts as in Table 3 (citral 2 μl, benzaldehyde 10 μl, dimethyl tetrahydrobenzaldehyde 20 μl, geraniol 10 μl, octyl aldehyde 20 μl, trans-2-undecenal 3 μl, phenylacetaldehyde 5 μl; A + B = both)
Procedure: An agar plate prepared according to the method of Example 1 was used while using An-1 (Aspergillus niger) for the test fungi. […] 10 μl of the ethanol containing the Table 3 prescribed amount of the fragrance was impregnated into a paper disc. The test agar plate was placed inversely, and the paper disc impregnated with each fragrance alone and a paper disc simultaneously impregnated with two types of fragrances were placed in the center of the cover, followed by incubating for 72 hours at 27° C. and measuring the diameters of the resulting growth inhibition zones.
The results obtained as in Example 2 with other combinations are shown in Tables 4 through 7 as combination examples of respective synergistic, additive and antagonistic actions for each fragrant chemical product (a). […] It should be noted that in order to make the table smaller, combinations that have already been listed once are not listed in other columns of the tables.

| Structure (SMILES) | IZ: Diameter of growth inhibition zone [1] [mm] | Growth: Growth status outside the inhibition zone [1] | IZ: Diameter of growth inhibition zone [2] [mm] | Growth: Growth status outside the inhibition zone [2] | IZ: Diameter of growth inhibition zone [3] [mm] | Growth: Growth status outside the inhibition zone ([3]; 20 μl fragrance on disc) | Synergistic effect: second fragrance that shows synergistic action with the fragrance component (An-1 (Aspergillus niger); value = combination partner) | Additive effect: second fragrance that shows additive action with the fragrance component (An-1 (Aspergillus niger); value = combination partner, combined IZ intermediate) | IZ (diameter of growth inhibition zone) (An-1 (Aspergillus niger)) [mm] | Growth (growth status outside the inhibition zone) (An-1 (Aspergillus niger)) | SI (diameter of spore formation inhibition zone) (An-1 (Aspergillus niger)) [mm] | Antagonistic effect: second fragrance that shows antagonistic action with the fragrance component (An-1 (Aspergillus niger); value = combination partner, combined IZ 20 mm or more smaller than sum of single IZ) | SI: Diameter of spore formation inhibition zone [1] [mm] | SI: Diameter of spore formation inhibition zone [2] [mm] | SI: Diameter of spore formation inhibition zone ([3]; 20 μl fragrance on disc) [mm] |
| --- | --- | --- | --- | --- | --- | --- | --- | --- | --- | --- | --- | --- | --- | --- | --- |
| O=Cc1ccccc1O [Salicylic aldehyde] | >85 | none | >85 | none | >85 | none | Cumin aldehyde and Thymol and 1-Decanol and Citronellol |  |  |  |  |  |  |  |  |
| CCCCCCCCCCO [Example 1-Decanol, 1-Decanol] | 80 | weak | 40 | slight | 60 | weak |  | Thymol and 1-Nonanal and Methyl salicylate, and Phenylacetaldehyde, and Eugenol |  |  |  |  |  |  |  |
| CCCCCCCCC=O [Example 1-nonanal, 1-nonanal] | 20 | weak | >85 | sparse | >85 | sparse |  |  |  |  |  |  |  |  |  |
| CCCCCCCC/C=C/C=O [Trans-2-undecenal] | >85 | none | >85 | none | >85 | none | Citral DMA; also recorded: Citral DEA; also recorded: Cumin aldehyde; also recorded: Geraniol; also recorded: Citronellol |  | 30 | slight | >85 | Eugenol |  |  |  |
| CC=Cc1ccc(O)c(OC)c1 [Isoeugenol] | 30 | good | 35 | good | 45 | good |  |  |  |  |  |  | 50 | 40 | 55 |
| CC(C)c1cccc(=O)c(O)c1 [Hinokitiol] | 60 | good | 70 | good | 0 | good |  |  |  |  |  |  |  |  |  |
| C=C(C)[C@@H]1CC=C(CO)CC1 [Perilla alcohol] | 30 | good | 40 | slight | 45 | slight |  |  |  |  |  |  | 40 |  |  |
| COC(=O)c1ccccc1O [Methyl salicylate] | 40 | weak | 65 | weak | 0 | good |  |  |  |  |  |  |  |  |  |
| Cc1ccc(C(C)C)c(O)c1 [Thymol] | 70 | weak | >85 | sparse | >85 | sparse |  |  |  |  |  |  | >85 |  |  |
| C=C(C)C1CC=C(C=O)CC1 (stereo not shown) [Perill aldehyde] | >85 | none | >85 | none | >85 | none |  |  |  |  |  |  |  |  |  |
| O=CCc1ccccc1 [Phenylacetaldehyde] |  |  |  |  |  |  |  |  | 25 | good | 30 |  |  |  |  |
| COC(C=C(C)CCC=C(C)C)OC [Citral DMA, citral dimethylacetal] | >85 | none | >85 | none | >85 | none |  |  |  |  |  |  |  |  |  |
| COc1ccc(C=O)cc1 [Anisaldehyde] | 45 |  | 35 |  | >85 |  |  |  |  |  |  |  | 60 | 40 |  |
| CC(C=O)Cc1ccc2c(c1)OCO2 (stereo not shown) [Helional] | 10 | good | 35 | weak | 0 | weak |  |  |  |  |  |  | 35 |  |  |
| COC(/C=C/c1ccccc1)OC [Cinnamic aldehyde DMA, cinnamic aldehydodimethylacetal] | 35 | weak | 65 | slight | 0 | good |  |  |  |  |  |  | 45 |  |  |
